The values that follow come from US11746100B2 (GLOBAL BLOOD THERAPEUTICS, INC., priority 2020, dated 2023).

The structures appear in SMILES notation.

What is called pEC50 is the EC50 on a negative log10 scale, so that one unit is a factor of ten. The low end stands for a high EC50, the high end for a low EC50.

The test concerns the target T1, human ferroportin (Homo sapiens, UniProt Q9NP59).
T1 construct: luciferase reporter (read with the Nano-Glo Luciferase Assay System); expressed in transfected cells; host or cells: CHO cells, stably transfected, expression induced with doxycycline
T1 sequence (Q9NP59 1-571): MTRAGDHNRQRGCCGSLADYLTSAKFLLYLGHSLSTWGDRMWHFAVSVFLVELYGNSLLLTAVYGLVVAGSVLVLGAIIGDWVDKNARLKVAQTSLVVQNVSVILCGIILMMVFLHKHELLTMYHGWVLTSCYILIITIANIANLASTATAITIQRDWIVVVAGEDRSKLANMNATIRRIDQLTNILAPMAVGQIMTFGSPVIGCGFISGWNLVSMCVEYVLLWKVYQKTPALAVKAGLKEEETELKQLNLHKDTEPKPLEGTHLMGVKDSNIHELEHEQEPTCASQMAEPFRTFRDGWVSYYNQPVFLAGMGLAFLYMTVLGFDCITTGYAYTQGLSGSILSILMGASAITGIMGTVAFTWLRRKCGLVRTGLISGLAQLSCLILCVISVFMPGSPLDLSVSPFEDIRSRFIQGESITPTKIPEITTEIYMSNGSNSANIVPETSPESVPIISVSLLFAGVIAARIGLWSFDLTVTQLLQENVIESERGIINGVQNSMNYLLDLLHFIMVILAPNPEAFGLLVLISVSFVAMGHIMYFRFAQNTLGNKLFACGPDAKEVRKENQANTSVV
Briefly: Biological in-vitro ferroportin internalization assay (luciferase reporter). Particulars: average pEC50; stably-transfected CHO cell line expressing human ferroportin tagged to a luciferase reporter; 6 h incubation with test compound. The class given is cell-based. In outline:
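Read-out is Nano-Glo luciferase signal after 6 h compound exposure, with average pEC50 derived. Cells are a stable CHO line carrying luciferase-tagged human ferroportin, pre-loaded 24 h with ferric ammonium citrate and doxycycline-induced for 24 h.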
Background: In a reporter assay the amount or activity of a reporter protein is the signal.
As to `CN(CC(=O)Nc1cnn(C2CC2)c1)c1nc(-c2cc(OCCO)ccn2)nc2c1CCC2` [Compound 353, N-(1-cyclopropyl-1H-pyrazol-4-yl)-2-({2-[4-(2-hydroxyethoxy)pyridin-2-yl]-5H,6H,7H-cyclopenta[d]pyrimidin-4-yl}(methyl)amino)acetamide], the pEC50 came out at 7.8.

Compound `CN(CC(=O)N1CCCC1)c1nc(-c2cc(OCCO)ccn2)nc2c1CCC2` [Compound 354, 2-({2-[4-(2-hydroxyethoxy)pyridin-2-yl]-5H,6H,7H-cyclopenta[d]pyrimidin-4-yl}(methyl)amino)-1-(pyrrolidin-1-yl)ethan-1-one] registered a pEC50 of 7.7.

On to `CN(CC(=O)N1CCC(F)(F)CC1)c1nc(-c2cc(OCCO)ccn2)nc2c1CCC2` [Compound 355, 1-(4,4-difluoropiperidin-1-yl)-2-({2-[4-(2-hydroxyethoxy)pyridin-2-yl]-5H,6H,7H-cyclopenta[d]pyrimidin-4-yl}(methyl)amino)ethan-1-one], for which the pEC50 stood at 7.7.

As to `CC(=O)NCCOc1ccnc(-c2nc3c(c(N(C)CC(=O)Nc4cccc(F)c4)n2)CCC3)c1` [Compound 356, 2-({2-[4-(2-acetamidoethoxy)pyridin-2-yl]-5H,6H,7H-cyclopenta[d]pyrimidin-4-yl}(methyl)amino)-N-(3-fluorophenyl)acetamide], the pEC50 turned out to be 8.3.

Compound `CN(CC(=O)N1CCCCCC1)c1nc(-c2cc(OCCO)ccn2)nc2c1CCC2` [Compound 357, 1-(azepan-1-yl)-2-({2-[4-(2-hydroxyethoxy)pyridin-2-yl]-5H,6H,7H-cyclopenta[d]pyrimidin-4-yl}(methyl)amino)ethan-1-one] gave a pEC50 of 7.7.

In turn, `CN(CC(=O)N1CCCCCC1)c1nc(-c2cc(OC3COC3)ccn2)nc2c1CCC2` [Compound 358, 1-(azepan-1-yl)-2-[methyl({2-[4-(oxetan-3-yloxy)pyridin-2-yl]-5H,6H,7H-cyclopenta[d]pyrimidin-4-yl})amino]ethan-1-one] displayed a pEC50 of 7.7.

As for `CN(CC(=O)N1CCC(F)CC1)c1nc(-c2cc(OCCO)ccn2)nc2c1CCC2` [Compound 359, 1-(4-fluoropiperidin-1-yl)-2-({2-[4-(2-hydroxyethoxy)pyridin-2-yl]-5H,6H,7H-cyclopenta[d]pyrimidin-4-yl}(methyl)amino)ethan-1-one], the pEC50 was determined as 7.5.

Turning to `CCN(CC(=O)NC(C)(C)C)c1nc(-c2cc(OCCO)ccn2)nc2c1CCC2` [Compound 360, N-tert-butyl-2-[ethyl({2-[4-(2-hydroxyethoxy)pyridin-2-yl]-5H,6H,7H-cyclopenta[d]pyrimidin-4-yl})amino]acetamide], the pEC50 is 7.8.

With `CN(CC(=O)NC(C)(C)C)c1nc(-c2cc(OCCO)ccn2)nc2c1C(C)(C)CC2` [Compound 361, N-tert-butyl-2-({2-[4-(2-hydroxyethoxy)pyridin-2-yl]-5,5-dimethyl-5H,6H,7H-cyclopenta[d]pyrimidin-4-yl}(methyl)amino)acetamide], the negative-log EC50 (pEC50) was 8.1.

In the case of `CN(CC(=O)N1CCCCC1)c1nc(-c2cc(OCCO)ccn2)nc2c1C(C)(C)CC2` [Compound 362, 2-({2-[4-(2-hydroxyethoxy)pyridin-2-yl]-5,5-dimethyl-5H,6H,7H-cyclopenta[d]pyrimidin-4-yl}(methyl)amino)-1-(piperidin-1-yl)ethan-1-one], the pEC50 came to 8.

The compound `COc1ccc(NC(=O)CN(C)c2nc(-c3cc(OCCO)ccn3)nc3c2C(C)(C)CC3)cn1` [Compound 363, 2-({2-[4-(2-hydroxyethoxy)pyridin-2-yl]-5,5-dimethyl-5H,6H,7H-cyclopenta[d]pyrimidin-4-yl}(methyl)amino)-N-(6-methoxypyridin-3-yl)acetamide] displayed a pEC50 of 8.3.

In turn, `CN(CC(=O)NC(C)(C)C)c1nc(-c2cc3ccoc3cn2)nc2c1CCC2` [Compound 365, N-tert-butyl-2-[(2-{furo[2,3-c]pyridin-5-yl}-5H,6H,7H-cyclopenta[d]pyrimidin-4-yl)(methyl)amino]acetamide] showed a pEC50 of 7.4.
